Assays:
Test in all cases: KINOMEscan
Type in all cases: binding
Conditions in all cases: read-out: % control activity remaining
[1] = molecular target: T1, ICK (Homo sapiens, UniProt Q9UPZ9)
T1 construct: purchased Eurofins DiscoverX KINOMEscan
T1 sequence (Q9UPZ9 1-632): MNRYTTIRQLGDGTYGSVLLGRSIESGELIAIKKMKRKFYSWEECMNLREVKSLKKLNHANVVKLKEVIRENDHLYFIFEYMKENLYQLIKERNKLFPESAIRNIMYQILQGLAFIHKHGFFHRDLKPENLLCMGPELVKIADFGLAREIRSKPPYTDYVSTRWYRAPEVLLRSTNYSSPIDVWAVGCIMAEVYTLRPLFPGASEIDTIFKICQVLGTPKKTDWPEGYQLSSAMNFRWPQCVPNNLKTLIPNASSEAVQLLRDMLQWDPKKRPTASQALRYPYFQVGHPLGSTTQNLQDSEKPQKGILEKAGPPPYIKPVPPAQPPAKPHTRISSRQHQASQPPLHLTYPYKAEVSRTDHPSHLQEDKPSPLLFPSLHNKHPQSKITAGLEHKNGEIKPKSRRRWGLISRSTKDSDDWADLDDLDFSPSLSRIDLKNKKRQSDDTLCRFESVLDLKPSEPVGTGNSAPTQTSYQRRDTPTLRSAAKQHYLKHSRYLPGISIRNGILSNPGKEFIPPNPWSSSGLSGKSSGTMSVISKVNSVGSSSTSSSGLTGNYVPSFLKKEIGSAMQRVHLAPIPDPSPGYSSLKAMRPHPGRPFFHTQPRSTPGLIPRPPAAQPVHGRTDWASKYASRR

[2] = molecular target: T2, MARK4 (Homo sapiens, UniProt Q96L34)
T2 construct: purchased Eurofins DiscoverX KINOMEscan
T2 sequence (Q96L34 1-752): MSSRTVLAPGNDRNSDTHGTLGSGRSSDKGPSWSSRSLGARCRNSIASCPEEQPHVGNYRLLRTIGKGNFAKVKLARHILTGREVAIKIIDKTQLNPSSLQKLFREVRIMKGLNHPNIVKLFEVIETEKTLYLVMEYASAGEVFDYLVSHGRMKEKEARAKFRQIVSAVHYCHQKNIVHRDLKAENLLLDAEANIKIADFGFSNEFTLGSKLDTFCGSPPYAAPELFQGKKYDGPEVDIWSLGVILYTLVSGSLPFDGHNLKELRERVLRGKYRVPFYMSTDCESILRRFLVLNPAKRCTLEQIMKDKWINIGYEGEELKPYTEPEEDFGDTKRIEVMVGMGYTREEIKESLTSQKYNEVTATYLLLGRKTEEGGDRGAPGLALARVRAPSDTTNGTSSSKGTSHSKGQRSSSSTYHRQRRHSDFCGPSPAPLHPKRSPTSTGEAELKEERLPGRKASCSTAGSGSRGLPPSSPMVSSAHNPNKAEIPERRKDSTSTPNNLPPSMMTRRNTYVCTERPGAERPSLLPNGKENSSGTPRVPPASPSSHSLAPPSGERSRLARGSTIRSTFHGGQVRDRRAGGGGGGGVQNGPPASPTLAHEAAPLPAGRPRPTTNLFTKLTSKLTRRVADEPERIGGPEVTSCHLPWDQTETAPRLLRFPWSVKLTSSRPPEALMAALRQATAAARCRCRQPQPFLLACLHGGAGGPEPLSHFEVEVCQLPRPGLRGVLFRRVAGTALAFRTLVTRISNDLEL

[3] = molecular target: T3, IKK-epsilon (Homo sapiens, UniProt Q14164)
T3 construct: purchased Eurofins DiscoverX KINOMEscan
T3 sequence (Q14164 1-716): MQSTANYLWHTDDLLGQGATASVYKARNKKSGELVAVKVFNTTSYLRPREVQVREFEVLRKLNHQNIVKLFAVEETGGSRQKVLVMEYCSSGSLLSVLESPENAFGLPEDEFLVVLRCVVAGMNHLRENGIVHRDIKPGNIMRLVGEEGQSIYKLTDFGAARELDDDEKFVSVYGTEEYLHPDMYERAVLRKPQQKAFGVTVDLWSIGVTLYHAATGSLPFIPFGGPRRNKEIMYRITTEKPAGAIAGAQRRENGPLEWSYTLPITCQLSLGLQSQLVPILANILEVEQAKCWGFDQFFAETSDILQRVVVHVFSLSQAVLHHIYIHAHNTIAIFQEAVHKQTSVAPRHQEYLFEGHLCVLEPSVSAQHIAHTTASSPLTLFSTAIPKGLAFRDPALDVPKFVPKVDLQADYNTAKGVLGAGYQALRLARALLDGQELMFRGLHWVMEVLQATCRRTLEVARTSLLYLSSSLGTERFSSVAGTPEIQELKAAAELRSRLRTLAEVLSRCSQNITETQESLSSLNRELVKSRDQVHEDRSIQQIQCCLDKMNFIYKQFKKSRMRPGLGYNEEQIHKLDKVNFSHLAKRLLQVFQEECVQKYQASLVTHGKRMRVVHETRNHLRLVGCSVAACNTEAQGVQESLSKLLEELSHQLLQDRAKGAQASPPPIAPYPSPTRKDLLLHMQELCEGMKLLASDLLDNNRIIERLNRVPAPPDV

[4] = molecular target: T4, ROS1 (Homo sapiens, UniProt P08922)
T4 construct: purchased Eurofins DiscoverX KINOMEscan

[5] = molecular target: T5, ERK5 (Homo sapiens, UniProt Q13164)
T5 construct: purchased Eurofins DiscoverX KINOMEscan

[6] = molecular target: T6, ABL1(E255K)-phosphorylated (Homo sapiens, UniProt P00519, E255K)
T6 construct: purchased Eurofins DiscoverX KINOMEscan

[7] = molecular target: T7, CDKL2 (Homo sapiens, UniProt Q92772)
T7 construct: purchased Eurofins DiscoverX KINOMEscan
T7 sequence (Q92772 1-493): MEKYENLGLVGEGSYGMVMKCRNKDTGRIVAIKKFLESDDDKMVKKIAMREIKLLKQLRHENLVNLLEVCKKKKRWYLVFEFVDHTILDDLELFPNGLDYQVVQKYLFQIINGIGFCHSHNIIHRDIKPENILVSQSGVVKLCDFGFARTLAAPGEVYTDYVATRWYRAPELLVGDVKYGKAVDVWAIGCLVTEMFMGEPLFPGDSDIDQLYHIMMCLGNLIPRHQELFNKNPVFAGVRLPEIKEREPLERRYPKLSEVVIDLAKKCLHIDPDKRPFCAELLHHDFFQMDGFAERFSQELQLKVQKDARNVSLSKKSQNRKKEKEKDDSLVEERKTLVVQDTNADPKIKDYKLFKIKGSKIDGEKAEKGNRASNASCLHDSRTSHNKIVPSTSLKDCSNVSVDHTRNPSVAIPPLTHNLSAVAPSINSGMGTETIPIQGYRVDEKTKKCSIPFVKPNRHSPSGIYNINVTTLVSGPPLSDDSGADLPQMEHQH

[8] = molecular target: T8, ABL1(M351T)-phosphorylated (Homo sapiens, UniProt P00519, M351T)
T8 construct: purchased Eurofins DiscoverX KINOMEscan

[9] = molecular target: T9, DMPK2 (Homo sapiens, UniProt Q6DT37)
T9 construct: purchased Eurofins DiscoverX KINOMEscan
T9 sequence (Q6DT37 whole entry): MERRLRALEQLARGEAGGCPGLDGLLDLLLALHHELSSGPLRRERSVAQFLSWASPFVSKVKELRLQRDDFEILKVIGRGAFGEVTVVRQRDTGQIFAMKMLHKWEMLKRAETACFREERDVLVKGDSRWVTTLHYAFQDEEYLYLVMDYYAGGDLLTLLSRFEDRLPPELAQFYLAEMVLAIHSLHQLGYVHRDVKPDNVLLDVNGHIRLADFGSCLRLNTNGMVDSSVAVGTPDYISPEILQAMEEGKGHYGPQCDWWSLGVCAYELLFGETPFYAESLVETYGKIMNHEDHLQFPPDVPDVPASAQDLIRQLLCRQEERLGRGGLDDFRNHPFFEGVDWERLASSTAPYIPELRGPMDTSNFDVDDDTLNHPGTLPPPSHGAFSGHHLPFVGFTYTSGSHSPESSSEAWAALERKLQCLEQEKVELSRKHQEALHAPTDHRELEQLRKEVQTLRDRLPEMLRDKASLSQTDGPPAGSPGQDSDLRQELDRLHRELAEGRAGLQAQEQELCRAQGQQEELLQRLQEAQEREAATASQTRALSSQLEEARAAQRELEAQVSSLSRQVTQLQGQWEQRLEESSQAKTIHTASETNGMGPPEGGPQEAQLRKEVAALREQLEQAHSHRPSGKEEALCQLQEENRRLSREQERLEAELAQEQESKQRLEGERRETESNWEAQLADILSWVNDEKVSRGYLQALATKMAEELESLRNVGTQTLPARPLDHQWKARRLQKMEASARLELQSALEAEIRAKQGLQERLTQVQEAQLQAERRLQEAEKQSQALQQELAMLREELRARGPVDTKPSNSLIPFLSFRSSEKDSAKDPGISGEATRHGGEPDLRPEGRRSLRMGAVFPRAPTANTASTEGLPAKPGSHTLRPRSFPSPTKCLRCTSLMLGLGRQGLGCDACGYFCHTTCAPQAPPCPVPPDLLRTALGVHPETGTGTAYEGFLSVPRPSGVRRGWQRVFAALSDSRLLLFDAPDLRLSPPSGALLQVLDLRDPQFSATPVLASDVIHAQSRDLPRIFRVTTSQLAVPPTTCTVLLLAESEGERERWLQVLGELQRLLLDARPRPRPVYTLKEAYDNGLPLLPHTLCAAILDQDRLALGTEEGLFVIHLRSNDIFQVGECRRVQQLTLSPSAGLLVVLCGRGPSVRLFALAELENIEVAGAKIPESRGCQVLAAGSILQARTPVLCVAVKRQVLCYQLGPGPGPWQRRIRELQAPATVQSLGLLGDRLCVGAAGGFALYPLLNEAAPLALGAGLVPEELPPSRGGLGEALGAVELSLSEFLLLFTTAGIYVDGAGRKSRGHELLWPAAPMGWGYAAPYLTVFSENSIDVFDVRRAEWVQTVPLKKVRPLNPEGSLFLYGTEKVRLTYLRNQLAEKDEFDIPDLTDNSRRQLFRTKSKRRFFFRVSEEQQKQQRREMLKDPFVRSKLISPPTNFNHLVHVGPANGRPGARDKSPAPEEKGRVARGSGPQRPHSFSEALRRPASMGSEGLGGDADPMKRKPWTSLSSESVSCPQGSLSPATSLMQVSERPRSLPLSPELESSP

T4 sequence (P08922 28-2347): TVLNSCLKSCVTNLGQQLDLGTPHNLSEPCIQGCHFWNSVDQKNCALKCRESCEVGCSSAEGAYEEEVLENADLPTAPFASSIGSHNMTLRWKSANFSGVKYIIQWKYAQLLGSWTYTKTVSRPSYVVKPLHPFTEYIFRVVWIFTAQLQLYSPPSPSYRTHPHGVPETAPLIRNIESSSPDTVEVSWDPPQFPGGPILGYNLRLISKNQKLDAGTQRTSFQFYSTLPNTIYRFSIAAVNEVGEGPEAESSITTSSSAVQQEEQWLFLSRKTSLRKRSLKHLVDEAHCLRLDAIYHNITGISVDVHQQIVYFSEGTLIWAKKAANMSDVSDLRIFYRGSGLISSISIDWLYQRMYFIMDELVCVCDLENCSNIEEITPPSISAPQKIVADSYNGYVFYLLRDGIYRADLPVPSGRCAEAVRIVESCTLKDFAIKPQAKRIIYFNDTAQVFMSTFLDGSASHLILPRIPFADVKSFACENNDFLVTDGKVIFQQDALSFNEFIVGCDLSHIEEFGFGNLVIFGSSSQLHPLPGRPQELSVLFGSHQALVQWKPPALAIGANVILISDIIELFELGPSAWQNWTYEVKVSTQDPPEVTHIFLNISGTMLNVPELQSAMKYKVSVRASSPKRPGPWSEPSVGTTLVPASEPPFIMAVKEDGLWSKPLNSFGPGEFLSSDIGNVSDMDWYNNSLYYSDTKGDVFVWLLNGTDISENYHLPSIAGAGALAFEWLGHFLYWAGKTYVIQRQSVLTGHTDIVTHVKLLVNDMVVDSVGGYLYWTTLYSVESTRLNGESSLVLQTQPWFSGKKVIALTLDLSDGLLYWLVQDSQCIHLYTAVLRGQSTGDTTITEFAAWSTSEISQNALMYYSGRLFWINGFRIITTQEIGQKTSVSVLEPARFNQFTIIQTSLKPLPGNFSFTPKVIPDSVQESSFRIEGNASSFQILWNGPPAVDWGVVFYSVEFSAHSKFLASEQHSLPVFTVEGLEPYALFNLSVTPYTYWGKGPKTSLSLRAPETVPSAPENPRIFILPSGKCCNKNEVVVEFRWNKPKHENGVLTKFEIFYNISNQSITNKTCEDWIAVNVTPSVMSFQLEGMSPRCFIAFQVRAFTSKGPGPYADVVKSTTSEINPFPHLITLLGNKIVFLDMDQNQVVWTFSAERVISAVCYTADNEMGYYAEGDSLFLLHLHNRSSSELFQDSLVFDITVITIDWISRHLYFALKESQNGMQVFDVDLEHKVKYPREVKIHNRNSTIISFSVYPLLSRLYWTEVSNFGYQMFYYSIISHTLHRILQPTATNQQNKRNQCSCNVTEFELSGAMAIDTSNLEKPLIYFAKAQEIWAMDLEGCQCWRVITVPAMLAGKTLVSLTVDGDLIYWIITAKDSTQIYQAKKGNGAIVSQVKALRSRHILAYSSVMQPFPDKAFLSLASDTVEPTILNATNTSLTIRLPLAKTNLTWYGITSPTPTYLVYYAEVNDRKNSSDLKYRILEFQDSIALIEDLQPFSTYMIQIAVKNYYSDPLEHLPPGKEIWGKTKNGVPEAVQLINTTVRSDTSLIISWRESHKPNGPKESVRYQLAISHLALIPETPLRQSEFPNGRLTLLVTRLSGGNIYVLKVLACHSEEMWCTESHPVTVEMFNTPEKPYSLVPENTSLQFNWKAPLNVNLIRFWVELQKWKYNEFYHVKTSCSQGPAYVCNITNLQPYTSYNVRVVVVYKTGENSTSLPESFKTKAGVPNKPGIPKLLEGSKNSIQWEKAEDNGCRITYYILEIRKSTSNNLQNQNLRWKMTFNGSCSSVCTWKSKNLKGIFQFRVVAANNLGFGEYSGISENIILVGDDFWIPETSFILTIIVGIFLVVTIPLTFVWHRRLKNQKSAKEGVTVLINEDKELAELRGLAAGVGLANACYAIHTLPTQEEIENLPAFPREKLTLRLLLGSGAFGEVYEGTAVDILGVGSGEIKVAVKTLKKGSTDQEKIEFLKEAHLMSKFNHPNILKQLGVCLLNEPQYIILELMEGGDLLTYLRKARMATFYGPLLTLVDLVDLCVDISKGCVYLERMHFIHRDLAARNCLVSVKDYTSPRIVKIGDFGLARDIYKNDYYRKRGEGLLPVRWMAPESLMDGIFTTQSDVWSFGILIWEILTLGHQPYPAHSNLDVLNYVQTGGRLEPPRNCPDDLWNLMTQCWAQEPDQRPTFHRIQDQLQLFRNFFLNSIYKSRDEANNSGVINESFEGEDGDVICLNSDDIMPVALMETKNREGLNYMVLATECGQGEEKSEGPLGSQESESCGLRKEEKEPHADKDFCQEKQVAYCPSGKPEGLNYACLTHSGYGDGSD
T5 sequence (Q13164 whole entry): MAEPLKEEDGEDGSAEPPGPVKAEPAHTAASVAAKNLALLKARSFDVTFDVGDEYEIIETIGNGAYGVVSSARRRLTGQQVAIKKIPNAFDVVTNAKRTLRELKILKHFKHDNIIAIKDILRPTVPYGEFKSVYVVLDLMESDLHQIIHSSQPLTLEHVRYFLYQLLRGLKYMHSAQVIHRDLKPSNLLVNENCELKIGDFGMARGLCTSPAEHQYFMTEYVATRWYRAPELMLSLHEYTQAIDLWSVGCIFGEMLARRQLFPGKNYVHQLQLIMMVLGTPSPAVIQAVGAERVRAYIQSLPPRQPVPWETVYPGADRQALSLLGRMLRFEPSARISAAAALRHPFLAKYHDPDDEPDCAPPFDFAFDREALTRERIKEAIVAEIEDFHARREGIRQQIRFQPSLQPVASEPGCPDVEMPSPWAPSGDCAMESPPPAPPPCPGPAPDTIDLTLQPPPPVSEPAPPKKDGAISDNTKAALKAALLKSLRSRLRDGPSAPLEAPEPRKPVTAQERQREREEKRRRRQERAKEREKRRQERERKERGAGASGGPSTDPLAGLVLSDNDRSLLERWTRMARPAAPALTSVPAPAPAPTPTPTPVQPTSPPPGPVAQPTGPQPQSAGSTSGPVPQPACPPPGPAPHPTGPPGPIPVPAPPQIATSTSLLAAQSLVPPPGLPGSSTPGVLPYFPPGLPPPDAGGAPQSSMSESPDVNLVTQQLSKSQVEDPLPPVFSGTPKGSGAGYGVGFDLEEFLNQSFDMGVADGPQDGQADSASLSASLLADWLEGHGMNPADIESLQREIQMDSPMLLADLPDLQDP

SMILES	remaining binding at 1 µM [1] [%]	remaining binding at 1 µM [2] [%]	remaining binding at 1 µM [3] [%]	remaining binding at 1 µM [4] [%]	remaining binding at 1 µM [5] [%]	remaining binding at 1 µM [6] [%]	remaining binding at 1 µM [7] [%]	remaining binding at 1 µM [8] [%]	remaining binding at 1 µM [9] [%]
Clc1cc(NCC2CC2)c2ncc(-c3ccc4[nH]ncc4c3)n2n1 [compound 2, 6-Chloro-N-(cyclopropylmethyl)-3-(1H-indazol-5-yl)imidazo[1,2-b]pyridazin-8-amine]	80	92	94	100	100	100	83	91	62
O=C(CN1CCOCC1)N[C@H]1CC[C@H](Nc2cc(Cl)nn3c(-c4ccc5[nH]ncc5c4)cnc23)CC1 [compound 26]	74	95	100	100	98	56	88	57	81
CN1CCC(CNc2cc(Cl)nn3c(-c4cc5nc(Nc6ccccc6)[nH]c5cc4F)cnc23)CC1 [compound 31, 6-Chloro-3-(6-fluoro-2-(phenylamino)-1H-benzo[d]imidazol-5-yl)-N-((1-methylpiperidin-4-yl)methyl)imidazo[1,2-b]pyridazin-8-amine]	97	93	78	96	87	86	81	78	100
